Columns and labels:
[1] = test system: AMBEL (Ambrosia artemisifolia); experiment: Postemergence herbicidal evaluation; assay type: in vivo, L.; conditions: postemergence
Procedure, shortened: (§1)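 Seedlings grown about two weeks in flats, sprayed, then kept under standard greenhouse care. Rated visually 4–5 weeks after treatment on a 0–9 scale (stand, vigour, malformation, size, chlorosis, overall appearance) relative to untreated control; repeat tests averaged.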

[2] = test system: CASOB (Cassia obtusifolia); experiment: Postemergence herbicidal evaluation; assay type: in vivo, L.; conditions: postemergence
Procedure, shortened: as §1

[3] = test system: CHEAL (Chenopodium album); experiment: Postemergence herbicidal evaluation; assay type: in vivo, L.; conditions: postemergence
Procedure, shortened: as §1

CYPIR (Cyperus iria) = experiment: Flooded paddy, preemergence weed control; assay type: in vivo; conditions: rated 3-4 weeks after treatment, 0-9 rating scale
Procedure, shortened: (§2)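 Visual 0-9 rating versus control, scoring stand, vigor, malformation, size, chlorosis and overall appearance. Silt loam soil, propagules in top 0.5 cm; flood depth 1.5–3 cm held for the whole test; greenhouse.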

[4] = test system: IPOHE (Ipomoea hederacea); experiment: Preemergence herbicidal evaluation; assay type: in vivo, (L.) Jacq.; conditions: rated 4-5 weeks after treatment
ORYSAT (Rice, Tebonnet) [5] = experiment: Preemergence herbicidal evaluation; assay type: in vivo, Oryza sativa, (L.) Tebonnet; conditions: rated 4-5 weeks after treatment
[6] = test system: GLXMAW (Soybean, Williams); experiment: Preemergence herbicidal evaluation; assay type: in vivo, Glycine max, (L.) Merr. cv Williams; conditions: rated 4-5 weeks after treatment
[7] = test system: ECHORC (Echinochloa oryzoides); experiment: Flooded paddy, preemergence weed control; assay type: in vivo, Echinochloa oryzoides (Ard.) Fritsch.; conditions: rated 3-4 weeks after treatment, 0-9 rating scale
Procedure, shortened: as §2

[8] = test system: TRZAWR (Wheat, Winter, cv Riband); experiment: Preemergence herbicidal evaluation; assay type: in vivo, Triticum aestivum; conditions: rated 4-5 weeks after treatment
Procedure, shortened: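 Seeds planted in potting soil cups and sprayed preemergence with aqueous acetone compound solution. Greenhouse-grown; rated 4–5 weeks after treatment on a 0-9 visual scale (stand, vigor, malformation, size, chlorosis, appearance) versus control.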

ZEAMX (Corn, Field) = experiment: Postemergence herbicidal evaluation; assay type: in vivo, Zea mays, L.; conditions: postemergence
Procedure, shortened: as §1

[9] = test system: ECHCG (Echinochloa crus-galli); experiment: Postemergence herbicidal evaluation; assay type: in vivo, (L.) Beau; conditions: postemergence
Procedure, shortened: as §1

ORYSAT (Rice, Tebonnet) [10] = experiment: Postemergence herbicidal evaluation; assay type: in vivo, Oryza sativa, (L.) Tebonnet; conditions: postemergence
Procedure, shortened: as §1

[11] = test system: SAGPY (Sagittaria pygmaea); experiment: Flooded paddy, preemergence weed control; assay type: in vivo, L.; conditions: rated 3-4 weeks after treatment, 0-9 rating scale
Procedure, shortened: as §2

SMILES | AMBEL herbicidal rating ([1]; rate 0.0320 kg/ha) | AMBEL herbicidal rating ([1]; rate 0.0620 kg/ha) | CASOB herbicidal rating ([2]; rate 0.0320 kg/ha) | CASOB herbicidal rating ([2]; rate 0.0620 kg/ha) | CHEAL herbicidal rating ([3]; rate 0.0320 kg/ha) | CHEAL herbicidal rating ([3]; rate 0.0620 kg/ha) | herbicidal rating, CYPIR (CYPIR (Cyperus iria); rate 0.0080 kg/ha) | herbicidal rating, CYPIR (CYPIR (Cyperus iria); rate 0.0320 kg/ha) | herbicidal rating, CYPIR (CYPIR (Cyperus iria); rate 0.1250 kg/ha) | Preemergence herbicidal rating IPOHE ([4]; Rate 0.0620 kg/ha) | Preemergence herbicidal rating IPOHE ([4]; Rate 0.1250 kg/ha) | Preemergence herbicidal rating IPOHE ([4]; Rate 0.2500 kg/ha) | Preemergence herbicidal rating ORYSAT (ORYSAT (Rice, Tebonnet) [5]; Rate 0.0620 kg/ha) | Preemergence herbicidal rating ORYSAT (ORYSAT (Rice, Tebonnet) [5]; Rate 0.1250 kg/ha) | Preemergence herbicidal rating ORYSAT (ORYSAT (Rice, Tebonnet) [5]; Rate 0.2500 kg/ha) | Preemergence herbicidal rating GLXMAW ([6]; Rate 0.0620 kg/ha) | Preemergence herbicidal rating GLXMAW ([6]; Rate 0.1250 kg/ha) | Preemergence herbicidal rating GLXMAW ([6]; Rate 0.2500 kg/ha) | herbicidal rating, ECHORC ([7]; rate 0.0080 kg/ha) | herbicidal rating, ECHORC ([7]; rate 0.0320 kg/ha) | other results
Cn1c(C(F)(F)F)cc(=O)n(-c2ccc3snc(C4(C)OCCO4)c3c2)c1=O [Compound 54, 1-methyl-3-[3-(2-methyl-1,3-dioxolan-2-yl)-1,2-benzisothiazol-5-yl]-6-(trifluoromethyl)uracil] | 9.0 | 9.0 | 2.0 | 9.0 | 5.0 | 9.0 | 0.0 | 7.5 | 9.0 | 9.0 | 9.0 | 9.0 | 9.0 | 9.0 | 9.0 | 9.0 | 9.0 | 9.0 | 8.0 | 8.0 | AMBEL herbicidal rating ([1]; rate 0.1250 kg/ha): 9.0; CASOB herbicidal rating ([2]; rate 0.1250 kg/ha): 9.0; CHEAL herbicidal rating ([3]; rate 0.1250 kg/ha): 9.0; herbicidal rating, ECHORC ([7]; rate 0.1250 kg/ha): 9.0; Preemergence herbicidal rating TRZAWR ([8]; Rate 0.0620 kg/ha): 9.0; Preemergence herbicidal rating TRZAWR ([8]; Rate 0.1250 kg/ha): 9.0; Preemergence herbicidal rating TRZAWR ([8]; Rate 0.2500 kg/ha): 9.0; ZEAMX herbicidal rating (ZEAMX (Corn, Field); rate 0.0320 kg/ha): 4.0; ZEAMX herbicidal rating (ZEAMX (Corn, Field); rate 0.0620 kg/ha): 4.0; ZEAMX herbicidal rating (ZEAMX (Corn, Field); rate 0.1250 kg/ha): 5.5; ECHCG herbicidal rating ([9]; rate 0.0320 kg/ha): 1.0; ECHCG herbicidal rating ([9]; rate 0.0620 kg/ha): 3.0; ECHCG herbicidal rating ([9]; rate 0.1250 kg/ha): 3.0; ORYSAT herbicidal rating (ORYSAT (Rice, Tebonnet) [10]; rate 0.0320 kg/ha): 5.0; ORYSAT herbicidal rating (ORYSAT (Rice, Tebonnet) [10]; rate 0.0620 kg/ha): 6.5; ORYSAT herbicidal rating (ORYSAT (Rice, Tebonnet) [10]; rate 0.1250 kg/ha): 7.0; herbicidal rating, SAGPY ([11]; rate 0.0080 kg/ha): 0.0; herbicidal rating, SAGPY ([11]; rate 0.0320 kg/ha): 7.0; herbicidal rating, SAGPY ([11]; rate 0.1250 kg/ha): 9.0
CC1CC(C)(C)OC(c2nsc3ccc(-n4c(=O)cc(C(F)(F)F)n(C)c4=O)cc23)O1 (stereo not drawn) [Compound 55, 1-methyl-6-(trifluoromethyl)-3-[3-(4,4,6-trimethyl-m-dioxan-2-yl)-1,2-benzisothiazol-5-yl]uracil] | 9.0 | 9.0 | 2.0 | 1.0 | 5.0 | 4.0 | 0.0 | 6.0 | 9.0 | 7.5 | 7.5 | 8.0 | 7.5 | 9.0 | 9.0 | 6.5 | 8.0 | 9.0 | 5.0 | 7.5 | herbicidal rating, ECHORC ([7]; rate 0.1250 kg/ha): 9.0; Preemergence herbicidal rating TRZAWR ([8]; Rate 0.0620 kg/ha): 8.0; Preemergence herbicidal rating TRZAWR ([8]; Rate 0.1250 kg/ha): 9.0; Preemergence herbicidal rating TRZAWR ([8]; Rate 0.2500 kg/ha): 9.0; ZEAMX herbicidal rating (ZEAMX (Corn, Field); rate 0.0320 kg/ha): 4.5; ZEAMX herbicidal rating (ZEAMX (Corn, Field); rate 0.0620 kg/ha): 5.0; ECHCG herbicidal rating ([9]; rate 0.0320 kg/ha): 1.0; ECHCG herbicidal rating ([9]; rate 0.0620 kg/ha): 1.0; ORYSAT herbicidal rating (ORYSAT (Rice, Tebonnet) [10]; rate 0.0320 kg/ha): 3.0; ORYSAT herbicidal rating (ORYSAT (Rice, Tebonnet) [10]; rate 0.0620 kg/ha): 4.5; herbicidal rating, SAGPY ([11]; rate 0.0080 kg/ha): 0.0; herbicidal rating, SAGPY ([11]; rate 0.0320 kg/ha): 0.0; herbicidal rating, SAGPY ([11]; rate 0.1250 kg/ha): 7.0
CC1COC(c2nsc3ccc(-n4c(=O)cc(C(F)(F)F)n(C)c4=O)cc23)O1 (stereo not drawn) [Compound 57, 1-methyl-3-[3-(4-methyl-1,3-dioxolan-2-yl)-1,2-benzisothiazol-5-yl]-6-(trifluoromethyl)uracil] | 9.0 | 9.0 | 7.0 | 9.0 | 9.0 | 7.0 | 0.0 | 7.5 | 9.0 | 9.0 | 9.0 | 9.0 | 8.0 | 8.0 | 9.0 | 9.0 | 9.0 | 9.0 | 5.0 | 8.0 | herbicidal rating, ECHORC ([7]; rate 0.1250 kg/ha): 9.0; Preemergence herbicidal rating TRZAWR ([8]; Rate 0.0620 kg/ha): 8.0; Preemergence herbicidal rating TRZAWR ([8]; Rate 0.1250 kg/ha): 8.0; Preemergence herbicidal rating TRZAWR ([8]; Rate 0.2500 kg/ha): 9.0; ZEAMX herbicidal rating (ZEAMX (Corn, Field); rate 0.0320 kg/ha): 5.0; ZEAMX herbicidal rating (ZEAMX (Corn, Field); rate 0.0620 kg/ha): 5.5; ECHCG herbicidal rating ([9]; rate 0.0320 kg/ha): 3.0; ECHCG herbicidal rating ([9]; rate 0.0620 kg/ha): 3.0; ORYSAT herbicidal rating (ORYSAT (Rice, Tebonnet) [10]; rate 0.0320 kg/ha): 4.0; ORYSAT herbicidal rating (ORYSAT (Rice, Tebonnet) [10]; rate 0.0620 kg/ha): 4.5; herbicidal rating, SAGPY ([11]; rate 0.0080 kg/ha): 0.0; herbicidal rating, SAGPY ([11]; rate 0.0320 kg/ha): 4.5; herbicidal rating, SAGPY ([11]; rate 0.1250 kg/ha): 7.5
